Experimental findings from ChEMBL document CHEMBL1140265, “Inhibitors of HCV NS5B polymerase. Part 1: Evaluation of the southern region of (2Z)-2-(benzoylamino)-3-(5-phenyl-2-furyl)acrylic acid” (Bioorg Med Chem Lett, 2005) are described below.

pEC50, pIC50: −log10 of the molar value. A value given as a limit tells only on which side of the number the result lay.

Data set [1] concerns the target RNA-directed RNA polymerase (Hepacivirus hominis, UniProt O39930). In words: Inhibitory concentration against Hepatitis C virus NS5B polymerase.
In data set [2] the test system is Hepatitis C virus. In words: Cytotoxic concentration against Hepatitis C virus replication using sub-genomic replicon assay. The class given is functional, Hepacivirus hominis.
Data set [3] relates to Hepatitis C virus. In words: Effective concentration against Hepatitis C virus replication using sub-genomic replicon assay. The class given is functional, Hepacivirus hominis. The note with it: read-out: ED50 (the source's name).
A short description of data set [4]: Half-life in rat after 5 mpk dosage administration. It counts as ADME, organism-based. The note with it: in vivo, 5 mg/kg.
Data set [5] in a line: Maximum concentration in plasma levels in rat after 5 mpk dosage administration. The class given is ADME, organism-based. The arrangement: dose 5 mpk. The conditions noted are these: 5 mg/kg.
Data set [6] in a line: Bioavailability in rat (dose 5 mg/kg). It counts as ADME, organism-based. The note with it: in vivo.
Data set [7] in a line: Clearance at low levels in rat after 5 mpk dosage administration. The class given is ADME, organism-based. The conditions noted are these: in vivo, 5 mg/kg.

Sequence of RNA-directed RNA polymerase (O39930 whole entry): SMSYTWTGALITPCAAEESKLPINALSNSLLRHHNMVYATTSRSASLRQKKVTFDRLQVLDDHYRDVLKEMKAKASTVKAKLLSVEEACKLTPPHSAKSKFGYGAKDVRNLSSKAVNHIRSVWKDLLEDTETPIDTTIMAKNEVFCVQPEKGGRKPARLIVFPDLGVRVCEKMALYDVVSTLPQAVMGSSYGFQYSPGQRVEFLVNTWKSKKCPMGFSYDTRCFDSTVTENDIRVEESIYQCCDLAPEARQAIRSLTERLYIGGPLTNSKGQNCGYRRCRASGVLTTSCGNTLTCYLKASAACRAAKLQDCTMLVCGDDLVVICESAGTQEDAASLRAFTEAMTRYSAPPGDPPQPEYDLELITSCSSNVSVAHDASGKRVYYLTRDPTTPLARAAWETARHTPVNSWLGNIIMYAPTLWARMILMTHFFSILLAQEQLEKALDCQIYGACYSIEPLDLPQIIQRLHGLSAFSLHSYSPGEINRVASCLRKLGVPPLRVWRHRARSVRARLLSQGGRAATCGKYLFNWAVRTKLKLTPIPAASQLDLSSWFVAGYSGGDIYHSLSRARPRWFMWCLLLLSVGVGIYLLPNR

As for `O=C(O)/C(=C/c1ccc(-c2ccc(C(F)(F)F)cc2)o1)NC(=O)c1ccccc1`, the pIC50 in data set [1] is 4.89.

With `CSc1ccc(-c2ccc(/C=C(\NC(=O)c3ccccc3)C(=O)O)o2)cc1`, the pIC50 in data set [1] is 4.57.

Turning to `O=C(O)/C(=C/c1ccc(-c2ccc(CO)cc2)o1)NC(=O)c1ccccc1`, in data set [1], the negative logarithm of the IC50 (pIC50) is less than 4.00.

On to `Nc1cccc(Cl)c1Oc1ccc(/C=C(\NC(=O)c2ccccc2)C(=O)O)cc1`, for which the pIC50 in data set [1] is 6.51.

For `O=C(O)/C(=C/c1ccc(-c2ccc(F)cc2)o1)NC(=O)c1ccccc1`, in data set [1], the pIC50 is 4.92.

In data set [1], `O=C(O)/C(=C/c1ccc(-c2ccccc2F)s1)NC(=O)c1ccccc1` had a pIC50 of 5.59. Against the preceding compound, the pIC50 is 0.67 log units higher.

Compound `Cc1cccc(Cl)c1Oc1ccc(/C=C(\NC(=O)c2ccccc2)C(=O)O)cc1` showed a pIC50 in data set [1] of 6.70.

As for `CCc1ccccc1Oc1ccc(/C=C(\NC(=O)c2ccccc2)C(=O)O)cc1`, the pIC50 in data set [1] was 5.03.

Take `O=C(O)/C(=C/c1ccc(-c2ccccc2)o1)NC(=O)c1ccccc1`: the CC50 in the data set with Hepatitis C virus [2] is greater than 100 µM. Also, the pEC50 in the data set with Hepatitis C virus [3] was less than 4.00. In data set [1], this compound gave a pIC50 of 5.17.

Compound `O=C(O)/C(=C/c1ccc(Oc2ccccc2C(F)(F)F)cc1)NC(=O)c1ccccc1` showed a pIC50 in data set [1] of 5.89.

Take `CC(C)c1ccccc1Oc1ccc(/C=C(\NC(=O)c2ccccc2)C(=O)O)cc1`: in data set [1], the pIC50 was 4.55.

`NS(=O)(=O)c1ccc(-c2ccc(/C=C(\NC(=O)c3ccccc3)C(=O)O)o2)cc1` had a negative logarithm of the IC50 (pIC50) in data set [1] of less than 4.00.

`O=C(O)/C(=C/c1ccc(-c2ccc(OC(F)(F)F)cc2)o1)NC(=O)c1ccccc1` showed a pIC50 in data set [1] of 4.66.

Consider `O=C(O)/C(=C/c1ccc(Oc2c(Cl)cccc2[N+](=O)[O-])cc1)NC(=O)c1ccccc1`, for which the negative logarithm of the IC50 (pIC50) in data set [1] was 5.26.

`O=C(O)/C(=C/c1ccc(-c2ccccc2CO)s1)NC(=O)c1ccccc1` showed a pIC50 in data set [1] of 4.70.

Compound `O=C(O)/C(=C/c1ccc(Oc2ccccc2Br)cc1)NC(=O)c1ccccc1` returned a CC50 in the data set on Hepatitis C virus [2] greater than 100 µM. The compound further showed a half-life in data set [4] of 1.5 h. In addition, the pEC50 in the data set with Hepatitis C virus [3] was 4.55. In data set [1], this compound showed a pIC50 of 7.00. This compound also showed a Cmax in data set [5] of 9 µM. In data set [6], this compound had a bioavailability of 21%. Moreover, in data set [7], the clearance was 3.33 mL/min/kg.

With `O=C(O)/C(=C/c1ncc(-c2ccccc2Cl)s1)NC(=O)c1ccccc1`, the negative logarithm of the IC50 (pIC50) in data set [1] was 5.28.

As to `O=C(O)/C(=C/c1ccc(-c2ccc([N+](=O)[O-])cc2)o1)NC(=O)c1ccccc1`, in data set [1], the negative-log IC50 (pIC50) is less than 4.00.

In the data set on Hepatitis C virus [2], `O=C(O)/C(=C/c1ccc(Oc2c(F)cccc2Br)cc1)NC(=O)c1ccccc1` gave a 50% cytotoxic concentration (CC50) greater than 100 µM. Besides, in the data set with Hepatitis C virus [3], the pEC50 was 4.30. This compound also had a pIC50 in data set [1] of 7.52.

On to `O=C(O)/C(=C/c1ccc(-c2cccc(C(F)(F)F)c2)o1)NC(=O)c1ccccc1`, for which the pIC50 in data set [1] is 5.06.

Regarding `O=C(O)/C(=C/c1ccc(Oc2ccccc2)cc1)NC(=O)c1ccccc1`, the pIC50 in data set [1] is 4.77.

With `O=C(O)/C(=C/c1ccc(Oc2ccccc2-c2ccccc2)cc1)NC(=O)c1ccccc1`, the pIC50 in data set [1] is 4.32. This pIC50 lies 0.45 log units lower than the previous one.

In data set [1], `O=C(O)/C(=C/c1ccc(-c2ccc(Cl)cc2)o1)NC(=O)c1ccccc1` had a pIC50 of 5.34. This pIC50 is 1.02 log units higher than that of the compound before.

In turn, `O=C(O)/C(=C/c1ccc(-c2cccc(F)c2)o1)NC(=O)c1ccccc1` had a pIC50 in data set [1] of 5.41. This pIC50 and that of the compound before are within 0.2 log units of each other.

Take `N#Cc1ccccc1Oc1ccc(/C=C(\NC(=O)c2ccccc2)C(=O)O)cc1`: the pIC50 in data set [1] was 4.33.

In data set [1], `O=C(O)/C(=C/c1ccc(-c2ccccc2Cl)o1)NC(=O)c1ccccc1` showed a negative logarithm of the IC50 (pIC50) of 5.89.

In the case of `O=C(O)/C(=C/c1cccc(-c2ccccc2Cl)n1)NC(=O)c1ccccc1`, the negative-log IC50 (pIC50) in data set [1] is 4.96.

The compound `O=C(O)/C(=C/c1cccc(-c2ccccc2Cl)c1)NC(=O)c1ccccc1` gave a negative logarithm of the IC50 (pIC50) in data set [1] of 5.89.

In data set [1], `O=C(O)/C(=C/c1ccc(-c2ccccc2Cl)s1)NC(=O)c1ccccc1` had a negative logarithm of the IC50 (pIC50) of 6.18.

As to `O=C(O)/C(=C/c1ccc(-c2ccccc2C(F)(F)F)o1)NC(=O)c1ccccc1`, the negative-log IC50 (pIC50) in data set [1] is 5.25.

For the compound `COc1ccccc1-c1ccc(/C=C(\NC(=O)c2ccccc2)C(=O)O)o1`, in data set [1], the pIC50 was 4.70.

Regarding `O=C(O)/C(=C/c1ccc(Oc2ccccc2[N+](=O)[O-])cc1)NC(=O)c1ccccc1`, the pIC50 in data set [1] is 4.14.

In the case of `CC(C)Oc1ccccc1Oc1ccc(/C=C(\NC(=O)c2ccccc2)C(=O)O)cc1`, the pIC50 in data set [1] is 4.36.

In turn, `Cc1ccccc1-c1ccc(/C=C(\NC(=O)c2ccccc2)C(=O)O)s1` gave a negative logarithm of the IC50 (pIC50) in data set [1] of 5.85.

On to `O=C(O)/C(=C/c1ccc(Oc2ccccc2Cl)cc1)NC(=O)c1ccccc1`, for which the CC50 in the data set with Hepatitis C virus [2] is greater than 100 µM. For the same compound, the half-life in data set [4] was 1.9 h. In addition, the pEC50 in the data set on Hepatitis C virus [3] is 4.22. This compound also had a pIC50 in data set [1] of 6.70. This compound also yielded a peak concentration (Cmax) in data set [5] of 22 µM. This compound displayed a bioavailability in data set [6] of 42%. The compound also had a clearance in data set [7] of 5.17 mL/min/kg.

In turn, `O=C(O)/C(=C/c1ccc(Oc2ccccc2I)cc1)NC(=O)c1ccccc1` had a CC50 in the data set on Hepatitis C virus [2] greater than 100 µM. Also, in the data set with Hepatitis C virus [3], the pEC50 is 4.54. Moreover, the pIC50 in data set [1] is 7.40.

The compound `Cc1ccccc1-c1ccc(/C=C(\NC(=O)c2ccccc2)C(=O)O)o1` showed a negative-log IC50 (pIC50) in data set [1] of 5.52.

In the case of `Cc1ccccc1Oc1ccc(/C=C(\NC(=O)c2ccccc2)C(=O)O)cc1`, the pIC50 in data set [1] was 6.24.

With `O=C(O)/C(=C/c1ccc(-c2ccccc2)s1)NC(=O)c1ccccc1`, in data set [1], the negative logarithm of the IC50 (pIC50) is 5.82.

For `O=C(O)/C(=C/c1ccc(-c2cccc([N+](=O)[O-])c2)o1)NC(=O)c1ccccc1`, the pIC50 in data set [1] is 4.60.

Consider `NS(=O)(=O)c1cccc(-c2ccc(/C=C(\NC(=O)c3ccccc3)C(=O)O)o2)c1`, for which, in data set [1], the pIC50 was less than 4.00.

Turning to `COc1ccccc1Oc1ccc(/C=C(\NC(=O)c2ccccc2)C(=O)O)cc1`, in data set [1], the negative logarithm of the IC50 (pIC50) was 4.82.

Regarding `O=C(O)/C(=C/c1ccc(-c2ccccc2OC(F)(F)F)o1)NC(=O)c1ccccc1`, the negative-log IC50 (pIC50) in data set [1] is 5.40. Against the preceding compound, the pIC50 is 0.58 log units higher.

Consider `CC(C)(C)c1ccccc1Oc1ccc(/C=C(\NC(=O)c2ccccc2)C(=O)O)cc1`, for which the negative logarithm of the IC50 (pIC50) in data set [1] was less than 4.00.

For the compound `O=C(O)/C(=C/c1ccc(Oc2ccccc2F)cc1)NC(=O)c1ccccc1`, in data set [1], the negative logarithm of the IC50 (pIC50) is 5.16.

In data set [1], `O=C(O)/C(=C/c1cncc(-c2ccccc2Cl)c1)NC(=O)c1ccccc1` showed a pIC50 of less than 4.00.

In data set [1], `CSc1ccccc1Oc1ccc(/C=C(\NC(=O)c2ccccc2)C(=O)O)cc1` gave a negative logarithm of the IC50 (pIC50) of 5.74.

`O=C(O)/C(=C/c1ccc(-c2cccc(OC(F)(F)F)c2)o1)NC(=O)c1ccccc1` had a negative logarithm of the IC50 (pIC50) in data set [1] of 4.18.

On to `O=C(O)/C(=C/c1ccc(-c2ccccc2F)o1)NC(=O)c1ccccc1`, for which the negative-log IC50 (pIC50) in data set [1] was 5.51.

`O=C(O)/C(=C/c1ccc(-c2cccc(CO)c2)o1)NC(=O)c1ccccc1` had a pIC50 in data set [1] of less than 4.00.

As to `O=C(O)/C(=C/c1ccc(-c2ccccc2[N+](=O)[O-])o1)NC(=O)c1ccccc1`, the negative-log IC50 (pIC50) in data set [1] is 5.16.

In the case of `O=C(O)/C(=C/c1ccc(Oc2c(F)cccc2Cl)cc1)NC(=O)c1ccccc1`, the negative logarithm of the IC50 (pIC50) in data set [1] is 7.15.

In data set [1], `O=C(O)/C(=C/c1ccc(-c2cccc(Cl)c2)o1)NC(=O)c1ccccc1` showed a negative-log IC50 (pIC50) of 5.22.
